From EP3797781A1, “USE OF EC-7072 AND SYNERGIC COMPOSITIONS THEREOF IN TREATMENT OF CHRONIC LYMPHOCYTIC LEUKEMIA” (priority 2019, dated 2021) come the findings set out here.

What all share (assay type): cell-based, human
In series [1] the test system is T cells isolated from patients with CLL. Description: T cell apoptosis by Annexin V/PI staining. Particulars: 200 nM, 24 hours; n = 3. As to the method:
Cell viability and apoptosis were evaluated by double-staining with the mitochondrial inner transmembrane potential (ΔΨm)-sensitive dye DiOC6(3) (3,3'-dihexyloxacarbocyanine iodide; Sigma-Aldrich) and the exclusion dye propidium iodide (PI; Immunostep), allowing identification of apoptotic [DiOC6(3)^low PI^-] and dead [PI^+] cells as per Proc. Natl. Acad. Sci. U.S.A. (2014) 111(8):3020-3025 and Methods Mol. Biol. (2016) 1419:1-16. Briefly, PBMCs were resuspended in culture medium containing 20 nM DiOC6(3) and incubated for 30 minutes at 37 °C. Then, PI (1 µg/mL) was added and cells were further incubated for 10 minutes at room temperature (RT). Cells were analyzed by flow cytometry considering DiOC6(3)^+PI^- cells as viable. In some experiments, apoptosis was evaluated by staining with Annexin V/PI. […]
(§1) The induction of caspase-dependent apoptosis on primary CLL cells by EC-7072 was assessed by: • (i) incubating PBMCs isolated from patients with CLL (n = 6) following treatment with increasing concentrations of EC-7072 (0 - 400 nM) for 24 hours. Apoptosis of leukemia cells was evaluated by cytofluorometric assessment of Annexin V/PI staining to obtain percentages of apoptotic [Annexin V^+ PI^-] and dead [PI^+] cells (Figure 3A); • (ii) incubating PBMCs and T cells isolated from patients with CLL (n = 3) following treatment with EC-7072 (200 nM) for 24 hours. […]

The subject of series [2] is isolated T cells from patients with CLL. In words: qPCR analysis of BCL2 expression in isolated T cells. The following applies: 200 nM, 6 hours; n = 3. Here is the method: Isolated leukemia cells from patients with CLL were incubated with EC-7072 (200 nM) or DMSO for 6 hours. Total RNA was extracted using RNeasy Mini Kit (Qiagen). 2 µg total RNA were used for cDNA synthesis using High-Capacity cDNA Reverse Transcription Kit (Applied Biosystems). Quantitative RT-PCR was performed using SYBR Green PCR Master Mix (Applied Biosystems) in a 7300 Real-Time PCR System and each sample was analyzed in triplicate. Table 1. Primers used in qPCR
The dysregulation of BCL2 expression in primary CLL by EC-7072 was evaluated by: • (i) incubating isolated CLL cells (n = 6) from patients with CLL following treatment with EC-7072 (200 nM) for 6 hours and extracting total RNA. Relative expression of BLC2 was determined by qPCR to obtain the mean relative expression to the control (DMSO) condition (Figure 6F); • (ii) incubating isolated CLL cells (n = 6) following treatment with 200 nM EC-7072 for 12 and 18 hours. BCL2 levels were evaluated by intracellular flow cytometry (Figure 6G); • (iii) incubating isolated T cells (n = 3) from patients with CLL following treatment with EC-7072 (200 nM) for 6 hours and extracting total RNA. […] T-cell death and apoptosis were assessed by DiOC6(3)/PI staining to obtain percentages of viable [DiOC6(3)^+] cells and the mean percentages of apoptotic [DiOC6(3)^low PI^-] and dead [PI^+] cells.

A further series concerns histone H2AX. Description: Phosphoflow of phosphorylated H2AX in isolated leukemia cells. Particulars: 200 nM, 12 hours; isolated leukemia cells (n = 4). As to the method: Protein phosphorylation levels were evaluated by phosphoflow. Briefly, isolated leukemia cells from patients with CLL were treated with 200 nM EC-7072 or DMSO for 8 or 12 hours. In some experiments, BCR signaling was activated with goat F(ab')2 anti-IgM antibody (10 µg/mL; SouthernBiotech) for 45 minutes. Right afterwards, cells were fixed with 1.8% paraformaldehyde for 10 minutes at RT and permeabilized with 90% ice-cold methanol for 25 minutes at 4 °C. Finally, cells were incubated with specific phospho-antibodies (p-SYK, p-BTK, p-ERK1/2 and p-H2AX from Biolegend, and p-PLCγ2, p-AKT, p-p65 NF-κB and p-STAT3 from BD Bioscience) for 30 minutes at RT and mean fluorescence intensity (MFI) was analyzed by flow cytometry.
as §1

On to `CO[C@@H]([C@@H]1Cc2cc3cc(O[C@H]4C[C@@H](O[C@H]5C[C@@H](O)[C@H](O)[C@@H](C)O5)[C@H](O)[C@@H](C)O4)c(C)c(O)c3c(O)c2C(=O)[C@H]1O[C@H]1C[C@@H](O[C@H]2C[C@@H](O[C@H]3C[C@](C)(O)[C@H](O)[C@@H](C)O3)[C@@H](O)[C@@H](C)O2)[C@H](O)[C@@H](C)O1)[C@@H](O)C(C)=O` [EC-7072, mithramycin SK], for which the “T cell apoptosis (Annexin V/PI)” value in series [1] was “no significant apoptosis”. In series [2], the “BCL2 expression in T cells” value was “not modulated”. For the same molecule, in the series with histone H2AX, the “phosphorylation of histone H2AX” value is recorded as “heightened phosphorylation”.
